24 molecules from patent EP0462123B1, “UV-ABSORBING COMPOUNDS AND COMPOSITIONS” (AUSTRALIAN INSTITUTE OF MARINE SCIENCE, priority 1989, dated 1990) can be followed below.

Series [1] is described as follows: log P (octanol/water partition coefficient) by HPLC method of Leahy, Taylor and Wait. In kind it is physicochemical. The note with it: octanol in conjunction with water. An excerpt:
Water resistance of compounds of formula I may be evaluated by reference to the partition coefficient of the compounds using a non-polar solvent such as octanol in conjunction with water. The term log P, where P is the partition coefficient, where used herein refers to the log P value determined by the HPLC method of David E Leahy, Peter J Taylor and Alan R Wait, Ouant. Struct.-Act Relat., 8, 17-31 (1989) at pages 23 and 24. Log P may be used to directly compare the lipophilicity of a variety of molecules as described by Hansch, C., and Leo, A. J., Substituent Constants for Correlation Analysis in Chemistry and Biology, John Wiley, New York 1979.
Struct. Act Relat., 8, 17-31 (1989) and the results are recorded in Table 6.

The nature of series [2]: E1%: relative UV absorbance of a 1% w/w solution. It is filed as physicochemical. The note with it: relative measure of the UV absorbance of a 1% w/w solution of the compound. An excerpt: This example compares the ultraviolet light absorbing properties and water resistance properties of compounds of the invention.
E1% is a relative measure of the UV absorbance of a 1% w/w solution of the compound.

The structures appear in SMILES notation.

By chromatographic logP is commonly meant lipophilicity estimated from chromatographic retention. As to `CCC(=O)C1=CN(CC(C)C)CCC1(C)C` [Compound 1, I-(2-Methylpropyl)-3-propionyl-4,4-dimethyl-1,4,5,6-tetrahydropyridine], the chromatographic logP in series [1] is 3.2. Also, in series [2], the E1% is reported as 131.

Consider `CCCCCCCCCC(=O)C1=CN(CC)CCC1(C)C` [Compound 9, I-Ethyl-3-decanoyl--4,4-dimethyl-1,4,5,6-tetrahydropyridine], for which, in series [1], the chromatographic logP is 5.8. In series [2], the E1% is reported as 100.

In turn, `CCCCCCCC(=O)C1=CN(C2CCCCC2)CCC1(C)C` [Compound 19, 1-Cyclohexyl-3-octanoyl-4,4-dimethyl-1,4,5,6-tetrahydropyridine] came in with a chromatographic logP in series [1] of 6.9. The same molecule displayed an E1% in series [2] of 91.

On to `CCCCCCCCCCCCCCCC(=O)C1=CN(CC)CCC1(C)C` [Compound 10, 1-Ethyl-3-palmitoyl--4,4-dimethyl-1,4,5,6-tetrahydropyridine], for which the chromatographic logP in series [1] was determined as 8.9. Further, the E1% in series [2] was found to be 77.

`CCCCC(CC)COC(=O)CCC(=O)C1=CN(CC)CCC1(C)C` (centres unmarked) [Compound 13, 1-Ethyl-3(2-ethyl-hexylsuccinoyl)--4,4-dimethyl-1,4,5,6-tetrahydropyridine]: the chromatographic logP in series [1] was 6.9. Moreover, the E1% in series [2] was found to be 87.

With `CCCCCCCCCCCCCCCCN1C=C(C(=O)CC)C(C)(C)CC1` [Compound 6, 1-Palmityl-3-propionyl-4,4-dimethyl-1,4,5,6-tetrahydropyridine], the chromatographic logP in series [1] turned out to be 9.4. In addition, in series [2], the E1% is recorded as 75.

In series [1], `CCCC(=O)C1=CN(CC(C)C)CCC1(C)C` [Compound 3, 1-(2-Methylpropyl) -3-butyryl-4,4-dimethyl-1,4,5,6-tetrahydropyridine] came in with a chromatographic logP of 3.7. Moreover, in series [2], the E1% worked out at 124.

Molecule `CCCCCCCC(=O)C1=CN(CC)CCC1(C)C` [Compound 7, 1-Ethyl-3-octanoyl--4,4-dimethyl-1,4,5,6-tetrahydropyridine] gave a chromatographic logP in series [1] of 4.8. The molecule further yielded an E1% in series [2] of 110.

`CCCCCCCC(=O)C1=CN(CC(C)C)CCC1(C)C` [Compound 5, 1-(2-Methylpropyl) -3-octanoyl-4,4-dimethyl-1,4,5,6-tetrahydropyridine] had a chromatographic logP in series [1] of 5.8. The E1% in series [2] is 100.

`CCCCC(CC)CN1C=C(C(=O)CC)C(C)(C)CC1` (centres unmarked) [Compound 8, 1-(2-Ethylhexyl)-3-propionyl-4,4-dimethyl-1,4,5,6-tetrahydropyridine] registered a chromatographic logP in series [1] of 5.3. For the same molecule, the E1% in series [2] amounted to 105.

`CC(C)CN1C=C(C(=O)C(F)(F)F)C(C)(C)CC1` [Compound 4, 1-(2-Methylpropyl) -3-trifluoroacetyl-4,4-dimethyl-1,4,5,6-tetrahydropyridine]: the chromatographic logP in series [1] is 3. For the same molecule, the E1% in series [2] worked out at 112.

The molecule `CCCCCCCCCC(=O)C1=CN(C(C)(C)C)CCC1(C)C` [Compound 20, 1-(1,1-Dimethyl-ethyl)-3-decanoyl--4,4-dimethyl-1,4,5,6-tetrahydropyridine] returned a chromatographic logP in series [1] of 6.9. Besides, the E1% in series [2] is reported as 91.

Regarding `CCCCCCCC(=O)C1=CN(C(C)C)CCC1(C)C` [Compound 23, 1-(1-Methylethyl)-3-octanoyl-4,4-dimethyl-1,4,5,6-tetrahydropyridine], the chromatographic logP in series [1] came out at 5.3. In series [2], this molecule came in with an E1% of 105.

In series [1], `CCCCCCCC(=O)C1=CN(C(C)(C)C)CCC1(C)C` [Compound 21, 1-(1,1-Dimethyl-ethyl)-3-octanoyl-4,4-dimethyl-1,4,5,6-tetrahydropyridine] had a chromatographic logP of 5.8. Also, the E1% in series [2] amounted to 100.

`CCCCCCCCCCN1C=C(C(=O)CC)C(C)(C)CC1` [Compound 18, 1-Decyl-3-propionyl--4,4-dimethyl-1,4,5,6-tetrahydropyridine] came in with a chromatographic logP in series [1] of 6.3. In series [2], this molecule had an E1% of 95.

As for `CCCCCCCCCCCCCC(=O)C1=CN(C)CCC1(C)C` [Compound 11, 1-Methyl-3-myristoyl-4,4-dimethyl-1,4,5,6-tetrahydropyridine], the chromatographic logP in series [1] worked out at 7.4. This molecule also had an E1% in series [2] of 87.

`CCCCCCCC(=O)C1=CN(CCCCCCC)CCC1(C)C` [Compound 12, 1-Heptyl-3-octanoyl-4,4-dimethyl--1,4,5,6-tetrahydropyridine] came in with a chromatographic logP in series [1] of 7.4. Further, the E1% in series [2] turned out to be 87.

`CCCCCCCCCC(=O)C1=CN(C(C)C)CCC1(C)C` [Compound 15, 1-(-Methylethyl)-3 decanoyl--4,4-dimethyl-1,4,5,6-tetrahydropyridine] gave a chromatographic logP in series [1] of 6.3.

`CC(C)CN1C=C(C(=O)CCCCC(=O)C2=CN(CC(C)C)CCC2(C)C)C(C)(C)CC1` [Compound 24] yielded a chromatographic logP in series [1] of 9.4. For the same molecule, in series [2], the E1% worked out at 131.

On to `CCCCCCCCCCCC(=O)C1=CN(C)CCC1(C)C` [Compound 17, 1-Methyl-3-lauroyl--4,4-dimethyl 4,5,6-tetrahydropyridine], for which the chromatographic logP in series [1] worked out at 6.3. Further, in series [2], the E1% is reported as 95.

In series [1], `CC(=O)C1=CN(CC(C)C)CCC1(C)C` [Compound 2, I-(2-Methylpropyl) -3-acetyl-4,4-dimethyl-1,4,5,6-tetrahydropyridine] registered a chromatographic logP of 2.7. The same molecule yielded an E1% in series [2] of 140.

`CCCCCCCCCC(=O)C1=CN(CC(C)C)CCC1(C)C` [Compound 16, 1-(2-Methylpropyl) -3-decanoyl--4,4-dimethyl-1,4,5,6-tetrahydropyridine] registered a chromatographic logP in series [1] of 6.9. Besides, in series [2], the E1% was found to be 91.

`CCCCCCCCCC(=O)C1=CN(CCC)CCC1(C)C` [Compound 14, 1-Propyl-3-decanoyl-4,4-dimethyl-1,4,5,6-tetrahydropyridine] registered a chromatographic logP in series [1] of 6.3. The E1% in series [2] is recorded as 95.

`CCCCCC(=O)C1=CN(C(C)(C)C)CCC1(C)C` [Compound 22, 1-(1,1-Dimethyl-ethyl) -3-hexanoyl-4,4-dimethyl-1,4,5,6-tetrahydropyridine]: the chromatographic logP in series [1] worked out at 4.8. This molecule also displayed an E1% in series [2] of 110.
